Tests used:
[1] = Solid-state stability with and without lactose at 50° C. (HPLC, DHEA formation); format: physicochemical
Source text: These conditions were used to stress the formulation in order to predict its long-term stability results. […] The primary degradant is DHEA. […] The materials on accelerated storage become more cohesive with time as evidenced by clumping during sample weighing for chemical analysis. […] This is a considerable disadvantage since lactose is the most commonly used inhalation excipient for dry powder formulations. Continuing with the virtually anhydrous form would mean limiting formulations to neat powder or undertaking more comprehensive safety studies to use a novel excipient.

[2] = Aerosolization of neat DHEA-S dihydrate, Acu-Breathe single-dose inhaler, fine particle fraction; format: physicochemical; conditions: 30 L/min, IDL data
Source text: The single-dose Acu-Breathe device is used for evaluating DHEA-S.dihydrate. […] These blisters are actuated into the Andersen 8-stage cascade impactor at flow rates ranging from 30 to 75 L/min with a glass twin-impinger throat. Stages 1-5 of the Andersen impactor are rinsed together to obtain an estimate of the fine particle fraction. Pooling the drug collected from multiple stages into one assay make the method much more sensitive. […] Using a carrier with a larger particle size typically improves the aerosol properties of micronized drug substances.

With `C[C@]12CC[C@H](OS(=O)(=O)[O-])CC1=CC[C@@H]1[C@@H]2CC[C@]2(C)C(=O)CC[C@@H]12.[Na+]` [Anhydrous DHEA-S] the DHEA % formed ([1]; 50° C., 1 week) was 9.817%, the DHEA % formed ([1]; 50° C., 2 weeks) was 14.954% and the DHEA % formed ([1]; 50° C., 4 weeks) was 20.171%. For the same compound, the DHEA % formed ([1]; Control, initial (Time=0)) was 2.774%, the DHEA % formed ([1]; Control, sealed, 25° C., 1 week) was 2.694% and the DHEA % formed ([1]; Control, sealed, 25° C., 2 weeks) was 2.370%. The DHEA % formed ([1]; Control, sealed, 25° C., 4 weeks) was 2.666% and the “Fine particle fraction (mass entering the impactor)” value [2] was “no detectable mass entered the impactor”.
